Like-named read-outs stand apart in the source and are kept apart here.

Broadly, the CLint scaled is the capacity of the preparation to metabolise the compound, expressed as a volume cleared per time. For orientation: microsomal CLint means the capacity of the preparation to metabolise the compound, expressed as a volume cleared per time. A higher microsomal CLint goes with faster metabolism. A word on the half-life: it is the time in which the quantity being followed falls by half.

A short description of series [1]: Liver microsome stability, rat. Particulars: for CLint scaled at 1 μM / microsomal CLint at 1 μM / half-life at 1 μM: liver microsomes; for CLint scaled at 1 μM: Scale-up CLint; for microsomal CLint at 1 μM: in vitro CLint; for half-life at 1 μM: in vitro t1/2, rat liver microsomes. Here is the method: (§1) For the liver microsome assay: • 1. The master solution was prepared according to Table 3. All liver microsome samples were purchased from BD Gentest.
(§2) • 2. Two separate experiments were performed as follows: (i) With Cofactors (NADPH): 25 μL of 10 mM NADPH was added to the incubations. […] The reaction was started with the addition of 2.5 μL of 100 μM control compound or test compound solutions. […] Aliquots of 30 μL were taken from the reaction solution at 0.5, 5, 15, 30 and 60 minutes. The reaction was stopped by the addition of 5 volumes of cold acetonitrile with IS (100 nM alprazolam, 200 nM caffeine and 100 nM tolbutamide). Samples were centrifuged at 3,220 g for 40 minutes. Aliquots of 100 μL of the supernatant was mixed with 100 μL of ultra-pure H2O and then used for LC-MS/MS analysis to detect the levels of the test compound. • 5. All calculations were carried out using Microsoft Excel and according to standard analysis methods that are known in the art.

A short description of series [2]: Liver microsome stability, human. The conditions noted are these: for CLint scaled at 1 μM / microsomal CLint at 1 μM / half-life at 1 μM: liver microsomes; for CLint scaled at 1 μM: Scale-up CLint; for microsomal CLint at 1 μM: in vitro CLint; for half-life at 1 μM: in vitro t1/2, human liver microsomes. Here is the method:
as §1, §2

Series [3] is described as follows: Liver microsome stability, dog. The conditions noted are these: for CLint scaled at 1 μM / microsomal CLint at 1 μM / half-life at 1 μM: liver microsomes; for CLint scaled at 1 μM: Scale-up CLint; for microsomal CLint at 1 μM: in vitro CLint; for half-life at 1 μM: in vitro t1/2, dog liver microsomes. Here is the method:
as §1, §2

Series [4] addresses kappa (h) (KOP) (agonist radioligand) (Homo sapiens, UniProt P41145). The conditions noted are these: at the tested concentration, negative values set to zero.
In a further series the target is T1, CYP2A6 (Homo sapiens, UniProt P11509).
T1 sequence (P11509 1-494): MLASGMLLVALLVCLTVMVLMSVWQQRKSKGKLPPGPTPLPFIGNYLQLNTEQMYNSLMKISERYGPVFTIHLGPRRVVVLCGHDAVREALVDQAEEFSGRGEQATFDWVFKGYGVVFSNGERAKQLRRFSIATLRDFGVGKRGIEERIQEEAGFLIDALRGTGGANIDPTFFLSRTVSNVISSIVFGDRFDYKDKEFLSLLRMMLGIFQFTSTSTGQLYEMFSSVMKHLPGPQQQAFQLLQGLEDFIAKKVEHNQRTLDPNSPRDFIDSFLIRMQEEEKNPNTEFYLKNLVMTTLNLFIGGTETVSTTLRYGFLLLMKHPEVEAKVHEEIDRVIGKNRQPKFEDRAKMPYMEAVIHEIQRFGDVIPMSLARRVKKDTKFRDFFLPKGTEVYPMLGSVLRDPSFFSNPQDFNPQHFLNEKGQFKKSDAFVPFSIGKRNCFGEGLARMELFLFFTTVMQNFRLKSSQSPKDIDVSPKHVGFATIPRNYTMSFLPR
Nature of the series: Incubation with recombinant CYP2A6. Particulars: for t1/2: unit not given.

A further series addresses CYP2E1 (Homo sapiens, UniProt P05181). Nature of the series: Incubation with recombinant CYP2E1. The conditions noted are these: for t1/2: unit not given.
The next series addresses T2, CYP1A2 (Homo sapiens, UniProt P05177).
T2 sequence (P05177 1-516): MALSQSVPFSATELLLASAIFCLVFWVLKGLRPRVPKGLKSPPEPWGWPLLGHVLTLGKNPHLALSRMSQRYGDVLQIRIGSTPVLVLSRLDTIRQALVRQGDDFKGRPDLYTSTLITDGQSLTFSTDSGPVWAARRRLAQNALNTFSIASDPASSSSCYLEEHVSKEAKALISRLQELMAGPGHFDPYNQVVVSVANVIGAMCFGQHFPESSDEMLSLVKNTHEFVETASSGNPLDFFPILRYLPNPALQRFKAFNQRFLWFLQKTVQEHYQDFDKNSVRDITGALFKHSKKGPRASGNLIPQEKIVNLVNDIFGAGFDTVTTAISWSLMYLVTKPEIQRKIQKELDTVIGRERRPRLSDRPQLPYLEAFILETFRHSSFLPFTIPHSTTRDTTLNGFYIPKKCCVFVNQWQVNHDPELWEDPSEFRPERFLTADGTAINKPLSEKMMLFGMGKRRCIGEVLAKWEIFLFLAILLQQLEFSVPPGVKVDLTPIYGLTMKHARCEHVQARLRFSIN
In words: Incubation with recombinant CYP1A2.

Another series concerns the target T3, CYP2C8 (Homo sapiens, UniProt P10632).
T3 sequence (P10632 1-490): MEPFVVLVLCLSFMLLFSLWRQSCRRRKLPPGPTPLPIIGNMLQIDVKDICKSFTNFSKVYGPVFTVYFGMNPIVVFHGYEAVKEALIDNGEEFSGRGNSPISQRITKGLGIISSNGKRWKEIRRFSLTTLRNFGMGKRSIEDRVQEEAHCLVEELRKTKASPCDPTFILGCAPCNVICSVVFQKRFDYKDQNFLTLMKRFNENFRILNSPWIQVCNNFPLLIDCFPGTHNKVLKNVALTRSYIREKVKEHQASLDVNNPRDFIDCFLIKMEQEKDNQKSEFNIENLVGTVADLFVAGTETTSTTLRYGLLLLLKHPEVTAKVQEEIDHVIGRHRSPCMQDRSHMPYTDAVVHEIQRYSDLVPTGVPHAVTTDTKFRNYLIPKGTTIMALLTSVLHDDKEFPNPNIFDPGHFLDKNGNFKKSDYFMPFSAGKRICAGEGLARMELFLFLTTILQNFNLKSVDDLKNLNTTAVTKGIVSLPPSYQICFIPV
In words: Incubation with recombinant CYP2C8. Particulars: for t1/2: unit not given.

Series [5] addresses M2 (h) (antagonist radioligand) (Homo sapiens, UniProt P08172). Particulars: at the tested concentration; negative values set to zero.
The next series has as its target CYP3A5 (Homo sapiens, UniProt P20815). In words: Incubation with recombinant CYP3A5.
For the next series, the target named is CYP2C9 (Homo sapiens, UniProt P11712). Nature of the series: Incubation with recombinant CYP2C9. The conditions noted are these: for t1/2: unit not given.
CYP2C9, sequence (P11712 whole entry): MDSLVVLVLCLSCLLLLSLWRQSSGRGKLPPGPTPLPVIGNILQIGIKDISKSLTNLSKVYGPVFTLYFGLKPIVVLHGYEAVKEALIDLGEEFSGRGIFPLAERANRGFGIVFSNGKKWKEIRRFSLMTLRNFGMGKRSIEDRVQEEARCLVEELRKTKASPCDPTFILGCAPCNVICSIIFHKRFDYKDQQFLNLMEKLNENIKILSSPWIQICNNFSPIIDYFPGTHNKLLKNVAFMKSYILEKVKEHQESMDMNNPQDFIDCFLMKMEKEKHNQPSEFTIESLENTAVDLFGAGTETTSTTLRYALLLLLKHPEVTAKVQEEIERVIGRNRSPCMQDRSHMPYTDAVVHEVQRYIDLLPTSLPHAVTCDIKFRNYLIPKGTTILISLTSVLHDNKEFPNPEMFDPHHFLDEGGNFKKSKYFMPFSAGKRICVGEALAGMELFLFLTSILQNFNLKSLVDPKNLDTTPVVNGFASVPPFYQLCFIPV
Setting [6] is: rat, rat liver microsomes, Example 15, Table 20.
Setting [7] is: human, human liver microsomes, Example 15, Table 20.
[8] abbreviates: dog, dog liver microsomes, Example 15, Table 20.

kappa (h) (KOP) (agonist radioligand), sequence (P41145 whole entry): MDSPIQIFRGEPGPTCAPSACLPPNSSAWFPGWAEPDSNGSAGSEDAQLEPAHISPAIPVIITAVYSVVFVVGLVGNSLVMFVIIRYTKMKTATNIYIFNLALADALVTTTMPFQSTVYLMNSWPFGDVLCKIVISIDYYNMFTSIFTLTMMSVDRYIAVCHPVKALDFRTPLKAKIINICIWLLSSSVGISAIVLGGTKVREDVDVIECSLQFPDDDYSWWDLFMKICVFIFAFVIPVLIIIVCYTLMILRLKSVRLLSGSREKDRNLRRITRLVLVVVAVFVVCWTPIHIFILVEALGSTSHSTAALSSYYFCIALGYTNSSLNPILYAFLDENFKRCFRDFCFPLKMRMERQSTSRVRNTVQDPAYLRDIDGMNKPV
CYP2E1, sequence (P05181 whole entry): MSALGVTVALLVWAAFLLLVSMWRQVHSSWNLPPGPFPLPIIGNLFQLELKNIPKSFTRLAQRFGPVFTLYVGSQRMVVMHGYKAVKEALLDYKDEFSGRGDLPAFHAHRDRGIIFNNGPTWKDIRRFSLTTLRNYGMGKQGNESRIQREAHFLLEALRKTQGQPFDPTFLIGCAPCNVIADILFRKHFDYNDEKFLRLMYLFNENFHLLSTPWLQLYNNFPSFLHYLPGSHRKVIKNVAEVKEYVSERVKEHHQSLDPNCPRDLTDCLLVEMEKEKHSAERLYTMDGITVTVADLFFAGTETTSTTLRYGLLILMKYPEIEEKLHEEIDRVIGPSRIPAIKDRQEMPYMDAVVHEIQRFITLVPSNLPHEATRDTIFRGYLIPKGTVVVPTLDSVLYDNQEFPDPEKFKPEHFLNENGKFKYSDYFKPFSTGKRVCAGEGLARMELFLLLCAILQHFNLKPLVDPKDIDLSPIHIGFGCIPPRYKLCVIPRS
CYP3A5, sequence (P20815 whole entry): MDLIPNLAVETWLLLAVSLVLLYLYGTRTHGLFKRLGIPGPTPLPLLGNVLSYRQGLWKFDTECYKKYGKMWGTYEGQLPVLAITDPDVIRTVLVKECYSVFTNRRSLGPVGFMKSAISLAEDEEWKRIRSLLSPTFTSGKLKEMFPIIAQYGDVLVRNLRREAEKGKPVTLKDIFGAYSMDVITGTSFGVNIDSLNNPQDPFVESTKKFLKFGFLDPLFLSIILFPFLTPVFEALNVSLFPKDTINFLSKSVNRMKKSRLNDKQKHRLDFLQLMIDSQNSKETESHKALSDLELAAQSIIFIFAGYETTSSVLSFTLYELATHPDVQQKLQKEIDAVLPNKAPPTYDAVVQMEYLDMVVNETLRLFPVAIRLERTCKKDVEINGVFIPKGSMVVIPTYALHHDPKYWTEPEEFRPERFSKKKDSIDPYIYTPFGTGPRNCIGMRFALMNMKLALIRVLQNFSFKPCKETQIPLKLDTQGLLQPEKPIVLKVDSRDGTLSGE
M2 (h) (antagonist radioligand), sequence (P08172 whole entry): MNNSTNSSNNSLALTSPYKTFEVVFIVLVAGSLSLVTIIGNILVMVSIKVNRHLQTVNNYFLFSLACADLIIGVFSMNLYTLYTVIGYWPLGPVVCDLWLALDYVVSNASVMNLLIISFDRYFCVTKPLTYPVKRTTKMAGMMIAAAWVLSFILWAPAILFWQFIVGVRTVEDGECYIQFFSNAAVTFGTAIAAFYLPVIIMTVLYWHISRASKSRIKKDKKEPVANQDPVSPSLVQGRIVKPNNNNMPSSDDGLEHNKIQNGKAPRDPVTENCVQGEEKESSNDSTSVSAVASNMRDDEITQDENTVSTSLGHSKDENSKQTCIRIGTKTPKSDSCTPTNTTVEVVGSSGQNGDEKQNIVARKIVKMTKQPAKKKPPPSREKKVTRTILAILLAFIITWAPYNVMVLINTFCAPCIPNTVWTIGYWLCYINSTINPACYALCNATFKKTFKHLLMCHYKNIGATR

Regarding `C[C@@H](C[N+](C)(C)C)OC(N)=O.[Cl-]` [(S)-BTC, (S)-bethanechol], the “Predicted Hepatic CLH” value was 0.00 mL/min/kg in series [1] (rat liver microsomes, Table 5); 0.00 mL/min/kg in [2] (human liver microsomes, Table 5); 0.00 mL/min/kg in series [3] (dog liver microsomes, Table 5). Moreover, the “in vitro t1/2” value in [1] (rat, microsomes) is reported as “∞”; in [2] (human, microsomes), “∞”; in series [3] (dog, microsomes), “∞”.
For the compound `O[C@@](CCN1CCCCC1)(c1ccccc1)C1CCCCC1` [(R)-THP, (R)-trihexyphenidyl], the entries for the “signal, kappa (h) (KOP) (agonist radioligand)” value in [4] and in series [4] (listed as R-THP) were “greater than 25%” and 26.19%, respectively. The CLint scaled at 1 μM in series [1] (setting [6]) was determined as 5330 mL/min/kg; in series [1] (rat, rat liver microsomes, Table 5) it was 5810 mL/min/kg; in [2] (setting [7]), 20.4 mL/min/kg; in series [2] (human, human liver microsomes, Table 5), 21.8 mL/min/kg; in [3] (setting [8]), 318 mL/min/kg; in series [3] (dog, dog liver microsomes, Table 5), 257 mL/min/kg. In addition, the microsomal CLint at 1 μM in [1] (rat, rat liver microsomes, with NADPH, Table 5) worked out at 2380 µL/min/mg; in [1] (setting [6]) it was 2190 µL/min/mg; in series [2] (human, human liver microsomes, with NADPH, Table 5) it was 21.2 µL/min/mg; in series [2] (setting [7]), 19.9 µL/min/mg; in [3] (dog, dog liver microsomes, with NADPH, Table 5), 146 µL/min/mg; in series [3] (setting [8]), 180 µL/min/mg. The half-life at 1 μM in series [1] (rat, with NADPH, 1 μM, Table 5) was 0.58 min; in series [1] (rat, Example 15, Table 20) it was 0.63 min; in series [2] (human, with NADPH, 1 μM, Table 5) it was 65.8 min; in [2] (human, Example 15, Table 20), 69.7 min; in [3] (dog, with NADPH, 1 μM, Table 5), 9.51 min; in series [3] (dog, Example 15, Table 20) it was 7.69 min. The CLint at CYP2A6, on CYP2E1, at CYP1A2, at CYP2C8 and at CYP2C9 was 0.00 µL/min/pmol in each case. For the same compound, the t1/2 entry on CYP2A6, on CYP2E1, at CYP2C8 and at CYP2C9 was “∞” each time. Moreover, the results for the “Substrates of CYP1A2” value on CYP1A2 and on CYP1A2 (listed as R) were “not metabolized” and “no R”, respectively. In addition, the “signal, M2 (h) (antagonist radioligand)” value in [5] is 98.95%. Further, at CYP3A5, the “Substrates of CYP3A5” value was “Rac, R and S”.
As for `O[C@](CCN1CCCCC1)(c1ccccc1)C1CCCCC1` [(S)-THP, (S)-trihexyphenidyl], the “signal, kappa (h) (KOP) (agonist radioligand)” value in [4] amounted to 34.64%. Also, the CLint scaled at 1 μM worked out at 1870 mL/min/kg in [1] (setting [6]), 58.9 mL/min/kg in [2] (setting [7]) and 429 mL/min/kg in [3] (setting [8]). Besides, the figures for the microsomal CLint at 1 μM in series [1] (setting [6]), in series [2] (setting [7]) and in series [3] (setting [8]) were 768 µL/min/mg, 57.3 µL/min/mg and 244 µL/min/mg, respectively. Further, the half-life at 1 μM stood at 1.8 min in series [1] (rat, Example 15, Table 20); 24.2 min in [2] (human, Example 15, Table 20); 5.72 min in series [3] (dog, Example 15, Table 20). Further, the CLint came to 0.00 µL/min/pmol at CYP2A6; 0.00 µL/min/pmol at CYP2E1; 0.20 µL/min/pmol at CYP1A2; 0.00 µL/min/pmol at CYP2C8; 0.00 µL/min/pmol at CYP2C9. The t1/2 result at CYP2A6, at CYP2E1, on CYP2C8 and at CYP2C9 was “∞” each time. Further, the “Substrates of CYP1A2” value at CYP1A2 is “is metabolized”; on CYP1A2 (listed as S), “S and Rac”. The half-life at CYP1A2 (human) came to 34.6 min; at CYP3A5 (human), 48.7 min. Besides, in series [5], the “signal, M2 (h) (antagonist radioligand)” value came out at 77.76%. Moreover, the “Substrates of CYP3A5” value on CYP3A5 is “Rac, R and S”.

(Values after patent publication US12290513B2, “Therapeutic methods and compositions for treating movement disorders” (Vima Therapeutics, Inc., priority 2023, dated 2025).)
